Assay results as given in patent US20250188057A1, “NON-AROMATIC CYCLIC-PYRIMIDINE ANALOGS AS GLUCOSYLCERAMIDE SYNTHASE INHIBITORS” (Merck Sharp & Dohme LLC, priority 2022, published 2025).

Target: glucosylceramide synthase (GCS) (Homo sapiens (Human), UniProt Q16739)
Assay: UDP-Glo glucosylceramide synthase biochemical assay
Conditions: endogenous GCS in Golgi preparations isolated from human A375 malignant melanoma skin cells; UDP detection by luminescence
From the text: A UDP-Glo™ glucosylceramide synthase biochemical assay was utilized to evaluate the effect of test compounds on the activity of endogenous levels of GCS enzyme contained within Golgi preparations isolated from human A375 malignant melanoma skin cells. The UDP-Glo™ glucosylceramide synthase assay uses UDP-Glucose as a nucleotide-glycosyl donor and ceramide as substrate acceptor molecules. In the reaction, glucosylceramide synthase (GCS) transfers glucose from UDP-Glucose to ceramide. Glucosylceramide and UDP are released as products.
Using Promega's UDP-Glo™ Glycosyltransferase assay kit (Promega Corporation, Madison, WI, USA (Promega)), GCS activity was indirectly measured by detecting the amount of UDP produced. An aliquot of GCS enzyme (1.5 μg crude golgi preparation, total protein) and titrated test compound were aliquoted to each well and incubated for 30 minutes at room temperature. […] An equivalent volume of substrate mixture was then added to each well. Following a 20 h incubation at room temperature to allow for GCS turnover of substrate, an equal volume of UDP detection reagent (Promega) was added to each well and incubated for an additional 75 minutes at room temperature to simultaneously convert the accumulated UDP product into ATP and generate light in a luciferase reaction. The generated light was detected using a luminometer. […] luminescence values (RLUs) were normalized to mean “min” and “max” effects, as determined on each plate. “Min” was defined as the mean of the values of the wells treated with vehicle (DMSO) and which represent 0% inhibition; “max” was defined as the mean of the values of the wells treated with a reference inhibitor and which represent the 100% effect. Values for % Emax and EC50 were determined by best-fitting the normalized data to a curve in Activity Base along a four-parameter logistic nonlinear regression (4PL) model (based on the Levenberg-Marquardt algorithm and defined by the equation below): […]
where: n is 4PMin (bottom of the curve); m is 4PMax (top of the curve); i is IP (inflection point of curve); and p is slope. See Levenberg, K., “A Method for the Solution of Certain Problems in Least Squares”, Quart. Appl. Math. 2, (1944), pp 164-168 and Marquardt, D., “An Algorithm for Least Squares Estimation on Nonlinear Parameters”, SIAM J. Appl. Math 11, (1963) pp 431-441.

Chain of glucosylceramide synthase (GCS) (Q16739 whole entry): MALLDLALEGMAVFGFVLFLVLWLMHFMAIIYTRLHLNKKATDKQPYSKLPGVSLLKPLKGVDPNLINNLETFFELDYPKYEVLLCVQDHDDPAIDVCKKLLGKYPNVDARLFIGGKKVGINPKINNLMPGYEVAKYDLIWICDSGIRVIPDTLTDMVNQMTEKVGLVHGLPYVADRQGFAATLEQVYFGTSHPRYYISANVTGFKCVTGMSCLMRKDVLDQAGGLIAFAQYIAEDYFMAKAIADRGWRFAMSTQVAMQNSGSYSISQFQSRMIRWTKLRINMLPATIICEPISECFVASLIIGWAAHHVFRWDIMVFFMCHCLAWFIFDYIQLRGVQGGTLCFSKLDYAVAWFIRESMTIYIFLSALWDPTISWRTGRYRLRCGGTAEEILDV

CC(F)(F)c1ccnc(N2CC[C@H](COc3nc(C4CC4)ncc3C#N)C2)c1 [Compound 32, (S)-2-cyclopropyl-4-((1-(4-(1,1-difluoroethyl)pyridin-2-yl)pyrrolidin-3-yl)methoxy)pyrimidine-5-carbonitrile] was tested, and the IC50 was 3290 nM.

N#Cc1cnc(C2CC2)nc1OC[C@H]1CCN(c2cccc3cnccc23)C1 [Compound 33, (S)-2-cyclopropyl-4-((1-(isoquinolin-5-yl)pyrrolidin-3-yl)methoxy)pyrimidine-5-carbonitrile] was tested, and the IC50 was 1400 nM.

For N#Cc1cnc(C2CC2)nc1OC[C@H]1CCN(c2cccc3ncccc23)C1 [Compound 34, (S)-2-cyclopropyl-4-((1-(quinolin-5-yl)pyrrolidin-3-yl)methoxy)pyrimidine-5-carbonitrile], the IC50 was 2050 nM.

For N#Cc1ccc(N2CC[C@H](COc3nc(C4CC4)ncc3C#N)C2)cc1F [Compound 35, (S)-4-((1-(4-cyano-3-fluorophenyl)pyrrolidin-3-yl)methoxy)-2-cyclopropylpyrimidine-5-carbonitirle], the IC50 was 458 nM.

With N#Cc1cnc(C2CC2)nc1OC[C@H]1CCN(c2cc(F)ncc2Cl)C1 [Compound 36, (S)-4-((1-(5-chloro-2-fluoropyridin-4-yl)pyrrolidin-3-yl)methoxy)-2-cyclopropylpyrimidine-5-carbonitrile] the IC50 was 2570 nM.

N#Cc1cnc(C2CC2)nc1OC[C@@H]1CCN(c2cc(F)ncc2Cl)C1 [Compound 37, (R)-4-((1-(5-chloro-2-fluoropyridin-4-yl)pyrrolidin-3-yl)methoxy)-2 cyclopropylpyrimidine-5-carbonitrile] gave an IC50 of 3510 nM.

For COc1cc(N2CC[C@@H](COc3nc(C4CC4)ncc3C#N)C2)c(F)cn1 [Compound 38, (R)-2-cyclopropyl-4-((1-(5-fluoro-2-methoxypyridin-4-yl)pyrrolidin-3-yl)methoxy)pyrimidine-5-carbonitrile], the IC50 was 2940 nM.

For N#Cc1cnc(C2CC2)nc1OC[C@H]1CCN(c2csc3c(Cl)ncnc23)C1 [Compound 39, (S)-4-((1-(4-chlorothieno[3,2-d]pyrimidin-7-yl)pyrrolidin-3-yl)methoxy)-2-cyclopropylpyrimidine-5-carbonitrile], the IC50 was 3990 nM.

Cc1nc(-c2ccc(N3CC[C@H](COc4nc(C5CC5)ncc4C#N)C3)cc2)co1 [Compound 40, (S)-2-cyclopropyl-4-((1-(4-(2-methyloxazol-4-yl)phenyl)pyrrolidin-3-yl)methoxy)pyrimidine-5-carbonitrile] showed an IC50 of 29 nM.

In the case of N#Cc1cnc(C2CC2)nc1OC[C@H]1CCN(c2ncc(C(F)(F)F)cn2)C1 [Compound 42, (S)-2-cyclopropyl-4-((1-(5-(trifluoromethyl)pyrimidin-2-yl)pyrrolidin-3-yl)methoxy)pyrimidine-5-carbonitrile], the IC50 is reported as 61 nM.

N#Cc1cnc(C2CC2)nc1OC[C@H]1CCN(c2ccc(C(F)(F)F)cn2)C1 [Compound 43, (S)-2-cyclopropyl-4-((1-(5-(trifluoromethyl)pyridin-2-yl)pyrrolidin-3-yl)methoxy)pyrimidine-5-carbonitrile] showed an IC50 of 40 nM.

In the case of N#Cc1cnc(C2CC2)nc1OC[C@H]1CCN(c2ccc(C(F)(F)F)nc2)C1 [Compound 44, (S)-2-cyclopropyl-4-((1-(6-(trifluoromethyl)pyridin-3-yl)pyrrolidin-3-yl)methoxy)pyrimidine-5-carbonitrile], the IC50 is reported as 140 nM.

For N#Cc1cnc(C2CC2)nc1OC[C@@H]1CCN(c2ccc(C(F)(F)F)nc2)C1 [Compound 45, (R)-2-cyclopropyl-4-((1-(6-(trifluoromethyl)pyridin-3-yl)pyrrolidin-3-yl)methoxy)pyrimidine-5-carbonitrile], the IC50 was 255 nM.

Compound N#Cc1cnc(C2CC2)nc1OC[C@H]1CCN(c2cc(C(F)(F)F)ccn2)C1 [Compound 46, (S)-2-cyclopropyl-4-((1-(4-(trifluoromethyl)pyridin-2-yl)pyrrolidin-3-yl)methoxy)pyrimdiine-5-carbonitrile] has an IC50 of 4190 nM.

Work on N#Cc1cnc(C2CC2)nc1OC[C@H]1CCN(c2ccnc(OC3CC3)c2)C1 [Compound 47, (S)-4-((1-(2-cyclopropoxypyridin-4-yl)pyrrolidin-3-yl)methoxy)-2-cyclopropylpyrimidine-5-carbonitrile] yielded an IC50 of 3090 nM.

N#Cc1cnc(C2CC2)nc1NC[C@H]1CCN(c2ccc(-n3cccn3)nc2)C1 [Compound 48, (R)-4-(((1-(6-(1H-pyrazol-1-yl)pyridin-3-yl)pyrrolidin-3-yl)methyl)amino)-2-cyclopropylpyimidine-5-carbonitrile] showed an IC50 of 969 nM.

In the case of CN(C[C@H]1CCN(c2ccc(-n3cccn3)nc2)C1)c1nc(C2CC2)ncc1C#N [Compound 49, (S)-4-(((1-(6-(1H-pyrazol-1-yl)pyridin-3-yl)pyrrolidin-3-yl)methyl)(methyl)amino)-2-cyclopropylpyrimidine-5-carbonitrile], the IC50 is reported as 1870 nM.

In the case of CC(Oc1nc(C2CC2)ncc1C#N)[C@H]1CCN(c2ncc(C(F)(F)F)cn2)C1 (stereo partly drawn) [Compound 50, 2-cyclopropyl-4-(1-((S)-1-(5-(trifluoromethyl)pyrimidin-2-yl)pyrrolidin-3-yl)ethoxy)pyrimidine-5-carbonitrile], the IC50 is reported as 81 nM.

N#Cc1cnc(C2CC2)nc1OCC12CC1CN(c1ncc(C(F)(F)F)cn1)C2 (stereo not shown) [Compound 51, 2-cyclopropyl-4-((3-(5-(trifluoromethyl)pyrimidin-2-yl)-3-azabicyclo[3.1.0]hexan-1-yl)methoxy)pyrimidine-5-carbonitrile] was tested, and the IC50 was 90 nM.

CC1(COc2nc(C3CC3)ncc2C#N)CCN(c2ncc(C(F)(F)F)cn2)C1 (stereo not shown) [Compound 52, 2-cyclopropyl-4-((3-methyl-1-(5-(trifluoromethyl)pyrimidin-2-yl)pyrrolidin-3-yl)methoxy)pyrimidine-5-carbonitrile] was tested, and the IC50 was 762 nM.

With CC1CN(c2ncc(C(F)(F)F)cn2)CC1COc1nc(C2CC2)ncc1C#N (stereo not shown) [Compound 53, 2-cyclopropyl-4-((4-methyl-1-(5-(trifluoromethyl)pyrimidin-2-yl)pyrrolidin-3-yl)methoxy)pyrimidine-5-carbonitrile] the IC50 was 148 nM.

With N#Cc1cnc(C2CC2)nc1OCC12CC(C1)N(c1ncc(C(F)(F)F)cn1)C2 [Compound 54, 2-cyclopropyl-4-((2-(5-(trifluoromethyl)pyrimidin-2-yl)-2-azabicyclo[2.1.1]hexan-4-yl)methoxy)pyrimidine-5-carbonitrile] the IC50 was 107 nM.

N#Cc1cnc(C2CC2)nc1OC[C@H]1CCN(c2ccc(-n3cccn3)nc2)C1 [Compound 55, (S)-4-((1-(6-(1H-pyrazol-1-yl)pyridin-3-yl)pyrrolidin-3-yl)methoxy)-2-cyclopropylpyrimidine-5-carbonitrile] showed an IC50 of 78 nM.

For N#Cc1cnc(C2CC2)nc1OC[C@H]1CCN(c2cnc(-n3cccn3)cn2)C1 [Compound 56, (S)-4-((1-(5-(1H-pyrazol-1-yl)pyrazin-2-yl)pyrrolidin-3-yl)methoxy)-2-cyclopropylpyrimidine-5-carbonitrile], the IC50 was 161 nM.

For N#Cc1cnc(C2CC2)nc1OCC1CCN(c2ccc(Cl)cc2)C1 (stereo not shown) [Compound 57, 4-((1-(4-chlorophenyl)pyrrolidin-3-yl)methoxy)-2-cyclopropylpyrimidine-5-carbonitrile], the IC50 was 20 nM.

Work on N#Cc1cnc(C2CC2)nc1OCC1CCN(c2ccc(Cl)cc2)C1 (stereo not shown) [Compound 58, 4-((1-(4-chlorophenyl)pyrrolidin-3-yl)methoxy)-2-cyclopropylpyrimidine-5-carbonitrile] yielded an IC50 of 156 nM.

N#Cc1cnc(C2CC2)nc1OCC1CCCN1c1ccccc1 (stereo not shown) [Compound 59, 2-cyclopropyl-4-((1-phenylpyrrolidin-2-yl)methoxy)pyrimidine-5-carbonitrile] was tested, and the IC50 was 363 nM.

Work on N#Cc1cnc(C2CC2)nc1OC1CN(Cc2ccc(F)cc2)C1 [Compound 60, 2-cyclopropyl-4-((1-(4-fluorobenzyl)azetidin-3-yl)oxy)pyrimidine-5-carbonitrile] yielded an IC50 of 3950 nM.

N#Cc1cnc(C2CC2)nc1OC[C@H]1C[C@@H]1c1ccc(F)cn1 [Compound 61, 2-cyclopropyl-4-(((1S,2S)-2-(5-fluoropyridin-2-yl)cyclopropyl)methoxy)pyrimidine-5-carbonitrile] was tested, and the IC50 was 1030 nM.

N#Cc1cnc(C2CC2)nc1OC[C@@H]1C[C@H]1c1ccc(F)cn1 [Compound 62, 2-cyclopropyl-4-(((1R,2R)-2-(5-fluoropyridin-2-yl)cyclopropyl)methoxy)pyrimidine-5-carbonitrile] showed an IC50 of 983 nM.

COc1ccc2c(c1)C(Nc1nc(C3CC3)ncc1C#N)CC2 (stereo not shown) [Compound 63, 2-cyclopropyl-4-((6-methoxy-2,3-dihydro-1H-inden-1-yl)amino)pyrimidine-5-carbonitrile] gave an IC50 of 8.6 nM.
